Data taken from patent publication US5383848A, “Iontophoretic administration of drugs” (Gensia, Inc., priority 1991, dated 1995).
Values joined by “and” are separate entries in the source; they are usually repeats but may differ in a detail not shown here. Equal entries are not always repeated. “Also recorded” adds a separate entry of the source.

Legend:
elevated heart rate [1] = assay: In vivo dog experiments: heart rate offset after iontophoretic ESA drug with pretreatment (Example A); parameters: species or system labrador dogs; conditions: for Offset Slope Component (0-5) min: 0-5 min after heart rate begins to decline; for Offset Slope Component (5-10) min: 5-10 min after decline begins; for Offset Slope Component (10-30) min: 10-30 min after decline begins; for Change in Heart Rate (peak minus baseline) / Peak Heart Rate: Table II; for Onset Slope: baseline at onset time to peak heart rate; for Offset time: drug delivery stopped until within 20 bpm of baseline; for Offset Slope: drug shut-off to 20 bpm above baseline; for Delay: drug shut-off to start of heart rate decline; for t 1/2 of elevated heart rate decay: exponential fit; for Onset time: start of delivery to start of increase in heart rate; for Time Start Decline: time when elevated heart rate began to decline
elevated heart rate [2] = assay: Additional in vivo dog experiments: dermal clearance enhancer pretreatment then arbutamine TDI (Example C); parameters: species or system labrador dogs
Experimental: Additional experiments were performed to study the effect of certain compositions on the offset time and dermal clearance in dogs.
In these experiments, the formulation to be tested was applied either topically or by transdermal iontophoresis (TDI) as described below.
Six labrador dogs (20 to 30 kg) were trained to lie quietly on a table. Before each experiment, three ECG electrodes (one lead) were applied on shaved areas of the back (near the front legs) to obtain the heart rate. The outer hind leg area (either right or left) was shaved prior to each experiment, with care taken not to cut or visibly damage the skin. The area was cleaned with soap and water and the skin was then […] using an alcohol swab followed by skin preparation with 3M One-Step-Prep™ tape.
Each vasodilator that was delivered by TDI used a 1.8 cm^2 electrode (Graphic Controls, Buffalo, N.Y.) containing the vasodilator in a gel at the concentrations listed in experimental methods section. In all experiments, an indifferent electrode containing a phosphate-buffered-saline gel was applied to the skin in conjunction with the electrode containing the vasodilator. Each vasodilator tested was applied for 10 minutes using a current of 0.6 mA/cm^2. During this time the heart rate was continuously recorded (at 5 second intervals) with the ESA Research System. The delivery electrodes were then removed, and any excess gel adhering to the skin was gently removed using a tissue.
Each topically applied vasodilator was applied to the skin in a volume of approximately 0.25 ml. The agent was allowed to absorb into the skin, during which time the heart rate was continuously recorded for 10 minutes using the ESA Research System.
To test if heat alone would produce sufficient vasodilation, a 60° C. hot pack was applied to the skin 10 minutes prior to drug delivery, during which time the heat rate was continuously recorded by the ESA System. Once drug delivery electrodes were applied, the heat pack was reheated and placed on top of them for the duration of the study.
The purpose of this treatment was to produce an elevated heart rate response of at least 40 beats-per-minute above baseline lasting for at least 30 minutes.
^1/ The dose (ITCA) was calculated by multiplying the applied current density (mA/cm^2) by the duration of delivery (minutes) and the drug concentration (%) and the area of the electrode (cm^2). […] The units of ITCA are mA.minutes.
The important variables for this analysis are:
1) delay between time when drug administration was stopped and start of decline in heart rate;
2) the time (minutes) to reach successive percent levels (i.e. 10, 20, 30, 40, and 50% decline) from the point of maximum change in heart rate^2.
3) the half-life (minutes) of the heart rate decline obtained from an exponential fit of the offset slope.
A combination of over-the-counter (OTC) and proprietary formulations were selected for comparison. […] Two dogs received each treatment at least one time.
The six dogs are identified in the table as BA, BB, BO, MI, PO and SA, followed by the experimental identification number. These dogs received control (no pretreatment) and five DCE pretreatment regimens.

[3] = Redness/irritation index of topical formulations on human volunteers (Example B); conditions: for Redness/irritation index, Mean: 7 subjects
Experimental: In these experiments data were collected from seven human volunteers concerning the effects of topical dermal clearance enhancers. […] Observations were recorded at 10, 20, and 30 minute intervals. The following redness/irritation index was used to categorize vasodilation/irritation:
0=no redness, i.e., erythema;
W=Wheal irritation, i.e., edemic core surrounded by an erythemic ring; and
The presence of vasodilation was determined by degree of redness of the skin. Wheal irritation was signified by the presence of an erythemic ring surrounding an upraised pale center. Whitening was denoted by a pale area with no upraising or redness.

[4] = Table VII, single dog run, listed as 1% Tolazoline

c1ccc(CC2=NCCN2)cc1 [Tolazoline]
Offset Slope Component (0-5) min (elevated heart rate [1]; listed as 5): -0.90 beats per minute per minute
Offset Slope Component (0-5) min (elevated heart rate [1]; listed as 6): -1.40 beats per minute per minute
Offset Slope Component (5-10) min (elevated heart rate [1]; listed as 5): -3.30 beats per minute per minute
Offset Slope Component (5-10) min (elevated heart rate [1]; listed as 6): -3.90 beats per minute per minute
Percent decline in heart rate, ranking (elevated heart rate [1]; 10-20 minute interval, FIG. 1): greatest percent decline
Offset Slope Component (10-30) min (elevated heart rate [1]; listed as 5): -0.70 beats per minute per minute
Offset Slope Component (10-30) min (elevated heart rate [1]; listed as 6): -0.58 beats per minute per minute
Delay to onset of heart rate decline, ranking (elevated heart rate [1]; FIG. 2): shortest delay
Heart rate decay half-life, ranking (elevated heart rate [1]; FIG. 2): relatively short half-lives
Reduction in heart rate offset (elevated heart rate [1]; FIGS. 3 and 4): dramatic reduction in heart rate offset
Change in Heart Rate (peak minus baseline) (elevated heart rate [1]; listed as 5): 53 bpm
Peak Heart Rate (elevated heart rate [1]; listed as 5): 119 bpm
Change in Heart Rate (peak minus baseline) (elevated heart rate [1]; listed as 6): 33 bpm
Peak Heart Rate (elevated heart rate [1]; listed as 6): 121 bpm
Total time (startup) thru offset plateau: w/in 20 bpm of baseline (elevated heart rate [1]; Table IV): 34 min
Total time (startup) thru offset plateau: reached baseline (elevated heart rate [1]; Table IV, listed as 5): 60 min
Total time (startup) thru offset plateau: reached baseline (elevated heart rate [1]; Table IV, listed as 6): 30 min
Onset Slope (elevated heart rate [1]; listed as 5): 4.70 beats per minute per minute
Onset Slope (elevated heart rate [1]; listed as 6): 3.50 beats per minute per minute
Offset time (elevated heart rate [1]; listed as 5): 34.00 min
Offset time (elevated heart rate [1]; listed as 6): 8.00 min
Offset Slope (elevated heart rate [1]; listed as 5): -1.00 beats per minute per minute
Offset Slope (elevated heart rate [1]; listed as 6): -3.20 beats per minute per minute
Delay (elevated heart rate [1]; listed as 5): 2.00 min
Delay (elevated heart rate [1]; listed as 6): 4.00 min
t 1/2 of elevated heart rate decay (elevated heart rate [1]; Table IV, listed as 5): 14.06 min
t 1/2 of elevated heart rate decay (elevated heart rate [1]; Table IV, listed as 6): 6.77 min
Reduction in offset time (elevated heart rate [1]; iontophoretic pre-delivery): found effective when pre-delivered iontophoretically; also recorded: significant reduction in offset time
Onset time (elevated heart rate [1]; listed as 5): 10.00 min
Onset time (elevated heart rate [1]; listed as 6): 7.00 min
Time Start Decline (elevated heart rate [1]; listed as 5): 20.00 min
Time Start Decline (elevated heart rate [1]; listed as 6): 21.00 min
Dermal clearance enhancement (elevated heart rate [1]; topical pretreatment): no measurable dermal clearance enhancement
CHANGE IN HEART RATE, Mean (elevated heart rate [2]; Table VII, mean of runs): 80.64 BPM
DELAY TIME, Mean (elevated heart rate [2]; Table VII, mean of runs): 2.76 min
HALF-LIFE, Mean (elevated heart rate [2]; Table VII, mean of runs): 16.35 min
TIME TO REACH 10% DECLINE IN HEART RATE, Mean (elevated heart rate [2]; Table VII, mean of runs): 6.44 min
TIME TO REACH 20% DECLINE IN HEART RATE, Mean (elevated heart rate [2]; Table VII, mean of runs): 9.83 min
TIME TO REACH 30% DECLINE IN HEART RATE, Mean (elevated heart rate [2]; Table VII, mean of runs): 13.40 min
TIME TO REACH 40% DECLINE IN HEART RATE, Mean (elevated heart rate [2]; Table VII, mean of runs): 18.38 min
TIME TO REACH 50% DECLINE IN HEART RATE, Mean (elevated heart rate [2]; Table VII, mean of runs): 27.16 min
CHANGE IN HEART RATE (elevated heart rate [2]; [4]): 53.00 BPM and 101.93 BPM and 80.67 BPM and 84.26 BPM and 93.54 BPM and 69.23 BPM and 92.75 BPM and 67.50 BPM and 97.31 BPM and 84.22 BPM and 64.17 BPM and 87.58 BPM and 72.15 BPM
DELAY TIME (elevated heart rate [2]; [4]): 2.00 min and 5.28 min and 0.67 min and 1.33 min and 1.77 min and 5.27 min and 1.81 min and 0.39 min and 0.00 min and 0.22 min and 4.43 min and 8.02 min and 4.65 min
TIME TO REACH 10% DECLINE IN HEART RATE (elevated heart rate [2]; [4]): 7.24 min and 9.14 min and 2.56 min and 9.27 min and 4.71 min and 8.58 min and 4.56 min and 4.31 min and 2.17 min and 4.63 min and 6.46 min and 9.64 min and 10.49 min
TIME TO REACH 20% DECLINE IN HEART RATE (elevated heart rate [2]; [4]): 8.85 min and 12.89 min and 4.46 min and 15.49 min and 7.55 min and 12.60 min and 10.28 min and 12.20 min and 4.12 min and 7.66 min and 8.49 min and 11.25 min and 11.90 min
TIME TO REACH 30% DECLINE IN HEART RATE (elevated heart rate [2]; [4]): 10.45 min and 16.35 min and 6.18 min and 20.96 min and 10.17 min and 19.78 min and 19.70 min and 14.89 min and 7.47 min and 11.55 min and 10.55 min and 12.87 min and 13.30 min
TIME TO REACH 40% DECLINE IN HEART RATE (elevated heart rate [2]; [4]): 12.29 min and 19.40 min and 7.61 min and 26.43 min and 14.58 min and 30.11 min and 28.29 min and 17.58 min and 12.20 min and 26.06 min and 12.63 min and 16.89 min and 14.83 min
TIME TO REACH 50% DECLINE IN HEART RATE (elevated heart rate [2]; [4]): 19.86 min and 22.45 min and 9.04 min and 31.33 min and 21.82 min and 35.27 min and 60.00 min and 20.27 min and 19.92 min and 66.00 min and 14.68 min and 20.44 min and 18.05 min
HALF-LIFE (elevated heart rate [2]; heart rate decline, Table VII, single dog run, listed as 1% Tolazoline): 5.75 min and 10.87 min and 20.60 min and 12.81 min and 18.60 min and 18.02 min and 11.30 min
response in screening study (elevated heart rate [2]; two dogs per treatment): most pronounced response

COC(=O)c1ccccc1O [Methyl Salicylate, Methyl salicylate]
Redness/irritation index, Mean ([3]; 10 min): 0
Redness/irritation index ([3]; 10 min, subject CV): 0
Redness/irritation index ([3]; 10 min, subject four): 0
Redness/irritation index ([3]; 10 min, subject one): 0
Redness/irritation index ([3]; 10 min, subject three): 0
Redness/irritation index ([3]; 10 min, subject two): 0
Redness/irritation index, Mean ([3]; 20 min): 0
Redness/irritation index ([3]; 20 min, subject CV): 0
Redness/irritation index ([3]; 20 min, subject three): 0
Redness/irritation index ([3]; 20 min, subject two): 0
Redness/irritation index, Mean ([3]; 30 min): 0
Redness/irritation index ([3]; 30 min, subject CV): 0
Redness/irritation index ([3]; 30 min, subject three): 0
Redness/irritation index ([3]; 30 min, subject two): 0
